The structures appear in SMILES notation.

This test concerns male Long-Evans rats. Nature of the test: Novel Object Recognition Test in Scopolamine-Induced Cognitive Deficit Condition. The format is in vivo. To be noted: rat. On the procedure:
For 2 days before starting the test, 6-week old male Long-Evans rats were acclimated to experimental operations such as administration and a test device (that is, a black or gray plastic cage with a width of 40 cm, a depth of 30 cm and a height of 45 cm). Each test compound was dissolved in a 0.5% methylcellulose in water to be orally administered at dosage ranges between 0.01 and 0.1 mg/kg. Thirty minutes after the test compound administration, scopolamine hydrobromide dissolved in a saline was intraperitoneally administered at a 0.7 mg/kg dose, so as to induce cognitive impairment. After another 30 minutes, each rat was acclimated in the test device for 3 minutes, and thereafter, two blocks in the same shape were put in the test device as acquisition trial, and exploring time for each block was measured for 5 minutes. Two hours after the acquisition trial, the rat was acclimated in the test device for 3 minutes, and thereafter, the same block as those used in the acquisition trial and a new block in a different shape were put in the cage for retention trial. The exploring time for each block was measured for 3 minutes, and a ratio of the exploring time for the newly used block to the sum of the exploring times for the respective blocks was calculated as a discrimination index (novel object exploration time/total object exploration time in retention trial×100). […]
Each discrimination index was shown as an average and a standard error. The statistical significance between the vehicle group and the scopolamine alone group was analyzed by the independent t-test. The statistical significance between the scopolamine alone group and each sample group was analyzed by one-way analysis of variance and then by Dunnett's multiple comparison test. […]

With `O=C(N[C@H]1CCCC[C@@H]1O)c1cn(Cc2ccc(F)cc2)c2cccnc12` [Example 5, 1-(4-Fluorobenzyl)-N-((1S,2S)-2-hydroxycyclohexyl)-1H-pyrrolo[3,2-b]pyridine-3-carboxamide], the “discrimination index [mean ± SEM]” value is, setting by setting: (Scopolamine/0.01 mg/kg p.o.) “[50.5 ± 4.3]”; (Scopolamine/0.03 mg/kg p.o.) “[61.7 ± 2.5]”; (Scopolamine/0.1 mg/kg p.o.) “[72.9 ± 2.6]###”.

Values taken from patent US10072005B2, “4-azaindole derivatives” (EISAI R&D MANAGEMENT CO., LTD., priority 2013, dated 2018).
